In patent US12570661B2, “Isoform-specific aldehyde dehydrogenase inhibitors” (The Board of Trustees of the Leland Stanford Junior …, priority 2020, dated 2026):
pIC50: −log10 of the molar value. Values belong to the compound of their own block, whether it stands above or below them.

How the values were obtained:
[1] = tested on: 5-FU-resistant SW480 cells; test: Spheroid growth of 5-FU-resistant versus parental SW480 cells; assay type: cell-based, human; details: spheroid culture
Protocol: The parental SW480 cells were cultured in RPMI-1640 medium containing 10% FBS, 100 U/mL penicillin, 100 μg/mL streptomycin, and 1 μM 5-FU for two weeks. The 5-FU concentration in the culture medium was then increased to 5 μM and after another two weeks raised further to 10 μM. The resulting 5-FU-resistant SW480 cells were maintained in culture medium with 10 μM 5-FU.
To prepare Matrigel-coated culture plates, 96-well and 24-well plates were placed on ice and coated with 25 μL or 300 μL, respectively, of Matrigel matrix (Corning, LDEV-free) that had been thawed overnight at 4° C. The plates were then placed in a 37° C. incubator for 30 min to allow the Matrigel to solidify. […]
SW480 or HCT116 cells were seeded into regular or Matrigel-coated 96-well plates at a density of 1000 cells/well. […] Each culture was maintained for 7 days, and then cell viabilities were measured using a CellTiter-Glo 3D Cell Viability Assay kit (Promega). […] A 150-μL aliquot from each well was then transferred into a white opaque 96-well assay plate (flat-bottom and non-treated; Corning Costar) and luminescence intensities were measured with a Veritas microplate luminometer (Turner BioSystems).

ALDH1A3 = target: T1, ALDH1A3 (Homo sapiens, UniProt P47895); test: ALDH1A3 enzyme kinetics assay; assay type: biochemical; details: enzyme kinetics assays, 1-μM dose
T1 construct: made in house
T1 sequence (P47895 1-512): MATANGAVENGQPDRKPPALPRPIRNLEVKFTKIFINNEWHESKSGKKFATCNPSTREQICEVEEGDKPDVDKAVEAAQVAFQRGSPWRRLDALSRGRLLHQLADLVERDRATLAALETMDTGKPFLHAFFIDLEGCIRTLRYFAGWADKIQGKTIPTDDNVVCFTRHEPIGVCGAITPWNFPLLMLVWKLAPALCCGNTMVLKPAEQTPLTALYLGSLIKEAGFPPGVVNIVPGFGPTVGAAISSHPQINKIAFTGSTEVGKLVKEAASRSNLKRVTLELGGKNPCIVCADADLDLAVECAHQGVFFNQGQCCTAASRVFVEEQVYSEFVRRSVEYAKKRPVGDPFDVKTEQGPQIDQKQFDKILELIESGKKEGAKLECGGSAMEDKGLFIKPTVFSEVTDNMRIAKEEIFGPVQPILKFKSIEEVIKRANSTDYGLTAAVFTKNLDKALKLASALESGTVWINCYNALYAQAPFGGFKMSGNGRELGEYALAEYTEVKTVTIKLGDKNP
Protocol: (§1) Cloning, expression, and purification of human recombinant ALDH1A1, ALDH1A3, ALDH2, ALDH3A1, ALDH3A2, ALDH4A1, ALDH5A1 and ALDH7A1 isozymes were conducted as described previously (Chen, C. H. et al. (2015) Proc. Natl. Acad. Sci. U.S.A. 112, 3074-3079). Human ALDH1A2 (Origene, SC109995) and ALDH1B1 (T. Hurley, Indiana University) plasmids were cloned into the pET-15b expression vector (Novagen, 69661-3) containing an N-terminal hexahistidine tag. The mitochondria-targeting sequence of ALDH1B1 was also removed. […] The protein concentration for each fraction was measured (500 μL elution volume was collected as one fraction and was immediately mixed with 500 μL glycerol. The protein concentration for each fraction was measured (600 nm Protein Assay Reagent; Thermo Fisher Scientific), and protein-containing fractions were diluted with an equal volume of glycerol and stored at −80° C. Samples from each step were also collected for SDS-PAGE gel analysis. For ALDH1B1 protein co-expression with chaperones, pET-15b-ALDH1B1 and GroEL/GroES (Addgene, plasmid pBB541) plasmids were co-transformed into competent BL21 E. coli cells, which were subsequently grown in 1 L of Luria-Bertani medium containing 100 μg/mL ampicillin and 50 μg/mL spectinomycin at 37° C. […]

ALDH2 = target: T2, ALDH2 (Homo sapiens, UniProt P05091); test: ALDH2 enzyme kinetics assay; assay type: biochemical; details: 50-μM compound concentration
T2 construct: made in house
T2 sequence (P05091 18-517): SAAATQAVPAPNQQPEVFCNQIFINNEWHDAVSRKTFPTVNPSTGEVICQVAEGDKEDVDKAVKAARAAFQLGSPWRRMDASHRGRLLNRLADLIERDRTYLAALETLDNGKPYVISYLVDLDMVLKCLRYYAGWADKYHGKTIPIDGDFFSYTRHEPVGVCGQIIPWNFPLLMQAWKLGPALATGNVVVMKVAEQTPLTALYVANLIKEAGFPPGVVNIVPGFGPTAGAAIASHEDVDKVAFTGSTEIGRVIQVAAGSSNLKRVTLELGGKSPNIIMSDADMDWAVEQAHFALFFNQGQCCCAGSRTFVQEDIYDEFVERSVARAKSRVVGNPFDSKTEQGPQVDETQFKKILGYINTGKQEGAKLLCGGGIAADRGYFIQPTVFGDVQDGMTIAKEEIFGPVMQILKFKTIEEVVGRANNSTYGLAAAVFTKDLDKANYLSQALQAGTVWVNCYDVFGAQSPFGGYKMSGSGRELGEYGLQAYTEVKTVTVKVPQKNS
Protocol: as §1

ALDH1B1 = target: T3, ALDH1B1 (Homo sapiens, UniProt P30837); test: ALDH1B1 enzyme kinetics assay (NADH fluorescence, acetaldehyde substrate); assay type: biochemical; design: made in house; host or cells: E. coli BL21 (optionally co-expressed with GroEL/GroES); details: enzyme kinetics assays against ALDH isoforms
T3 sequence (P30837 18-517): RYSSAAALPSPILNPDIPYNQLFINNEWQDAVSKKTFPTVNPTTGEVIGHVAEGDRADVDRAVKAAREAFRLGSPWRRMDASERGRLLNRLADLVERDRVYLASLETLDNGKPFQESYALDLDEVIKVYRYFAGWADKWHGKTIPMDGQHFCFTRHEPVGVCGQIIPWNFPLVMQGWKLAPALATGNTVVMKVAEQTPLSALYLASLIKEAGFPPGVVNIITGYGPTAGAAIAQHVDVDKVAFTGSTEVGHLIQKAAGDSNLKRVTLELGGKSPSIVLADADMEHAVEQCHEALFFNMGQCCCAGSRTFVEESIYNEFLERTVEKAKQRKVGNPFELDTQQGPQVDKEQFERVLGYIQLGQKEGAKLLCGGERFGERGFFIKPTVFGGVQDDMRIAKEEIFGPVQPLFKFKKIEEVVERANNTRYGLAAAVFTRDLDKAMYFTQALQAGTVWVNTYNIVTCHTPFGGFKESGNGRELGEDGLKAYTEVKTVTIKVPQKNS
Protocol: Cloning, expression, and purification of human recombinant ALDH1A1, ALDH1A3, ALDH2, ALDH3A1, ALDH3A2, ALDH4A1, ALDH5A1 and ALDH7A1 isozymes were conducted as described previously (Chen, C. H. et al. (2015) Proc. Natl. Acad. Sci. U.S.A. 112, 3074-3079). Human ALDH1A2 (Origene, SC109995) and ALDH1B1 (T. Hurley, Indiana University) plasmids were cloned into the pET-15b expression vector (Novagen, 69661-3) containing an N-terminal hexahistidine tag. The mitochondria-targeting sequence of ALDH1B1 was also removed. For protein expression without chaperones, the pET-15b based plasmids were transformed into competent BL21 E. coli cells, which were subsequently grown in 1 L of Luria-Bertani medium containing 100 μg/mL ampicillin at 37° C. Once the OD600 value reached 0.6, the culture was transferred to 16° C. and 0.5 mM isopropyl β-d-1-thiogalactopyranoside was introduced to induce protein expression overnight. The bacteria were then pelleted by centrifugation (3000×g, 4° C. for 30 rain) and harvested. 40 mL BugBuster Master Mix buffer (MilliporeSigrna) containing a protease inhibitor cocktail (cOmplete; Roche) was added, and the cells were lysed by mechanically rolling the suspension at room temperature for 25 min. The lysate was centrifuged (16000×g, 4° C. for 30 min), and the soluble fraction was collected and mixed with 2 mL of Ni-NTA Superflow resin (Qiagen). After the mixture was avowed to rock at 4° C. for 1 h, it was used to create a 10-mL gravity column, which was sequentially treated with 40 mL of wash buffer 1 (20 mM sodium phosphate, 500 mM NaCl, 1 mM DTT, 20 mM imidazole, 5% glycerol, pH 7.4) and 25 mL of wash buffer 2 (20 mM sodium phosphate, 500 mM NaCl, 1 mM DTT, 40 mM imidazole, 5% glycerol, pH 7.4). The hexahistidine-tagged protein was then recovered by treated the column with 5 mL elution buffer (20 mM sodium phosphate, 500 mM NaCl, 1 mM DTT, 400 mM imidazole, 5% glycerol, pH 7.4) and collecting 500-μL fractions. The protein concentration for each fraction was measured (500 μL elution volume was collected as one fraction and was immediately mixed with 500 μL glycerol. The protein concentration for each fraction was measured (600 nm Protein Assay Reagent; Thermo Fisher Scientific), and protein-containing fractions were diluted with an equal volume of glycerol and stored at −80° C. Samples from each step were also collected for SDS-PAGE gel analysis. For ALDH1B1 protein co-expression with chaperones, pET-15b-ALDH1B1 and GroEL/GroES (Addgene, plasmid pBB541) plasmids were co-transformed into competent BL21 E. coli cells, which were subsequently grown in 1 L of Luria-Bertani medium containing 100 μg/mL ampicillin and 50 μg/mL spectinomycin at 37° C. The hexahistidine-tagged ALDH1B1 protein was then expressed and purified as described above.
To evaluate compound activities against ALDH isoforms, reaction mixtures consisting of enzyme assay buffer (100 mM sodium phosphate, 1 mM MgCl2, pH 8.0) and 0.1% DMSO, 1 mM β-mercaptoethanol, 1 mM NAD^+, and the bacterially expressed protein were prepared in white opaque 96-well assay plates (100 μL/well, flat-bottom and non-treated; Corning Costar). 5 μg/mL ALDH enzyme was used for single-dose (1, 10, 50 μM) compound test, and 1 μg/mL ALDH enzyme was used for IC50s determination. Acetaldehyde was then added to each well to achieve an initial substrate concentration of 1 mM, and the resulting enzymatic activity was measured based on NADH fluorescence. The fluorescence signal was read over the course of 10 min on a SpectraMax M2e microplate reader (340-nm excitation and 460-nm emission; Molecular Devices) operated by SoftMax Pro software. Compound activities were normalized to a DMSO control, and dose-response inhibition curves were fitted with four-parameter non-linear regression using Prism software. […]

NIH-3T3 cells = test: Seahorse oxygen-consumption-rate assay (NIH3T3); assay type: cell-based, murine; details: Mus musculus
SW480 cells (adherent) = test: Cell viability assay, adherent SW480 cultures; assay type: cell-based, human; details: Homo sapiens, SW480, 168 h; adherent culture, 7 days
Protocol: SW480 or HCT116 cells were seeded into regular or Matrigel-coated 96-well plates at a density of 1000 cells/well. The cells were cultured in the corresponding adherent or spheroid culture medium (200 μL/well) containing the designated compounds or an equivalent amount of DMSO vehicle. Each culture was maintained for 7 days, and then cell viabilities were measured using a CellTiter-Glo 3D Cell Viability Assay kit (Promega). Briefly, 100 μL of the culture medium was removed from each well and replaced with 100 μL 3D Cell Assay reagent. The cells in each well were next homogenized by vigorous pipetting, and the plate was incubated for 10 min at room temperature to stabilize the chemiluminescent signal. A 150-μL aliquot from each well was then transferred into a white opaque 96-well assay plate (flat-bottom and non-treated; Corning Costar) and luminescence intensities were measured with a Veritas microplate luminometer (Turner BioSystems).

Compound: CCOc1ccc(-n2cc(-c3ccc(-c4ccc(C(=O)OC)cc4)cc3)[n+]3c2CCCCC3)cc1 [Imidazolium 46]
- ALDH1A3 inhibition / isoform selectivity (in words) (ALDH1A3): ALDH1A3-specific inhibitor

Compound: COc1ccccc1-n1cc(-c2ccc(-c3ccc([N+](=O)[O-])cc3)cc2)[n+]2c1CCCCC2.[Br-] [Imidazolium 10]
- ALDH1A3 inhibition / isoform selectivity (in words) (ALDH1A3): inhibitor of both ALDH1B1 and ALDH1A3
- ALDH1B1 inhibition / isoform selectivity (in words) (ALDH1B1): inhibitor of both ALDH1B1 and ALDH1A3

Second part, led by results:

- loss of sensitivity of 5-FU-resistant SW480 line versus parental line [1]: 50 fold
Compound: O=c1[nH]cc(F)c(=O)[nH]1 [Compound 5-FU, 5-fluorouracil]

- inhibition of ALDH2 activity (ALDH2): only partially suppressed
Compound: C#CCOc1ccc(-n2cc(-c3ccc(N=[N+]=[N-])cc3)[n+]3c2CCCCC3)cc1 [Imidazolium 3]

- GI50 (SW480 cells (adherent)): 820 nM
Compound: c1ccc(-c2ccc(-c3cn(C4CCCCC4)c4[n+]3CCCCC4)cc2)cc1 [Imidazolium 53]
- pIC50 (NIH-3T3 cells): 6.77
